Measured values taken from US20240299328A1, “COMPOSITIONS COMPRISING 15-HEPE AND METHODS OF TREATING AND/OR PREVENTING HEMATOLOGIC DISORDERS AND RELATED DISEASES” (Afimmune Limited, priority 2023, published 2024).
Where two headings read alike, the source gives them in different places. Marks after values point to notes of the source that are not given here.

Columns and labels:
[1] = test system: α-SMA, TIMP-1, TGF-β and Collagen Type 1 mRNA; assay: UUO study: quantitative RT-PCR of kidney; format: in vivo; conditions: UUO mice kidney, normalized to 36B4, Day 14, mean ± SD
Experimental: Quantitative RT-PCR: Total ribonucleic acid (RNA) was extracted from kidney samples using RNAiso. One μg of RNA was reverse-transcribed using a reaction mixture containing […] (mM) of magnesium chloride (MgCl2), 40 U RNase inhibitor, 0.5 mM dNTP, 6.28 µM random hexamer, 5× first strand buffer, 10 mM dithiothreitol and 200 U MMLV-RT in a final volume of 20 μL. The reaction was carried out for 1 hour at 37° C., followed by 5 minutes at 99° C. Real-time PCR was performed using real-time PCR DICE and TB Green™ Premix Ex Taq™ II. To calculate the relative […] (mRNA) expression level, the expression of each gene (e.g., α-SMA, TIMP-1, TGF-β and Collagen Type 1) was normalized to that of reference gene 36B4 (gene symbol: Rplp0). Information regarding the PCR-primer sets and the plate layout are described in Tables 1 and 2.

NAFLD patients [2] = assay: Phase IIa NAFLD study: OWL liver care diagnostic test; format: in vivo, human; conditions: for Change in Diagnosis (Week 16 vs. baseline): Improvement / Change in Diagnosis (Week 16 vs. baseline): Stable / Change in Diagnosis (Week 16 vs. baseline): Worsening: number of patients
Source text: OWL Liver Care is a test that was developed based on the plasma lipidomics in biopsy-confirmed NASH patients and provides high predictive values. OWL Liver Care has an area under the curve (AUC) of 0.88 for distinguishing NAFLD and normal liver patients and an AUC of 0.79 for distinguishing NAFLD without steatohepatitis and NASH patients.

NAFLD patients [3] = test system: NAFLD patients
Source text: Safety Assessments included the following: medical history; physical examination; ECG; vital signs; clinical laboratory safety tests (e.g., hematology, serum biochemistry, coagulation, lipid profile, and urinalysis); virology; pregnancy test; blood sampling; pharmacokinetic sampling; exploratory blood collection; biomarker blood collection; urine DOA and alcohol breath test; adverse event assessment; concomitant medication; bioanalysis; sample, storage, handling; and shipping; and restrictions. A detailed description of each is provided below.
AEs were recorded in the case report form, defining relationship to IMP and severity.
SAE: If a patient experienced a serious adverse event after the first dose of the study drug, the event was recorded as a SAE. A SAE is characterized as an untoward medical occurrence at any dose to include any of the following: results in death, is life threatening, requires in-patient hospitalization or prolongation of existing hospitalization, or results in persistent or significant disability/incapacity. The term “life-threatening” refers to an event in which the patient was at risk of death at the time of the event.
Safety Analysis: Demographic, medical history and physical examination data were listed for each patient and summarized descriptively. All AEs recorded during the study were coded to system organ class and preferred terms using the current version of the Medical Dictionary for Regulatory Activities (MedDRA). AEs were tabulated and summarized by treatment, relationship to treatment, seriousness and severity. Clinical laboratory values (e.g., hematology, biochemistry, and urinalysis) were listed for each patient by treatment and day. Values outside the laboratory normal ranges were listed separately with associated comments as to their clinical significance, with potentially clinically significant abnormalities highlighted and summarized by treatment. Clinical laboratory values obtained prior to dosing were defined as baseline values. Alcohol breath test and DOA test results were listed for each patient. Individual values of vital signs were listed and summarized descriptively for each treatment and day. 12 lead ECG assessments were listed for each patient with all associated comments and summarized by treatment and day. Concomitant medications (if any), categorized by medication group and subgroup according to the latest version of the World Health Organization drug dictionary, were listed and summarized by treatment. In general, appropriate descriptive statistics according to the nature of the variable were applied. Categorical variables were presented using counts and percentage, whilst continuous variables were presented using mean, standard deviation, median, minimum, maximum, coefficient of variation and number of patients.

Sprague Dawley rats = assay: 26 week rat toxicity study: coagulation; format: in vivo; conditions: male rats, 26 weeks
Experimental: The test and control items were administered to the appropriate animals by once daily oral gavage 7 days a week for a minimum of 26 weeks. The volume for each animal was based on the most recent body weight measurements. The doses were given using a syringe with attached gavage cannula. The first day of dosing was designated as Day 1. The dosing formulations were removed from the refrigerator and stirred for at least 30 minutes before dosing. The dosing formulations were also stirred continuously during dosing.
Sample Collection: Blood was collected via the tail vein unless immediately prior to necropsy, when blood was collected from the orbital sinus under non-recoverable isoflurane anesthesia. Blood was collected in ascending animal order unless samples were collected prior to necropsy where the order of euthanasia was followed. Additional blood samples were obtained (e.g., due to clotting of non-serum samples) if permissible sampling frequency and blood volume were not exceeded. After collection, samples were transferred to the appropriate laboratory for processing. Samples were collected according to the following table.
Coagulation: A 0.5 mL blood sample was collected using the anticoagulant 3.8% (w/v) trisodium citrate for processing to plasma. To assess coagulation the following coagulation parameters were measured.
Animals: The study used male and female Sprague Dawley rats purchased from Charles River UK Limited (Margate, Kent, UK). The target age at the initial dosing was 7-8 weeks. The target weight at the initial dosing was 175-300 g (males) and 120-250 g (females). Each animal was identified using a subcutaneously implanted electronic cylindrical, “glass-sealed” TROVAN microchip.

[4] = 1 g DS102 arm, OWL baseline diagnosis NASH
[5] = 1 g DS102 arm, OWL baseline diagnosis No NAFLD
[6] = 1 g DS102 arm, OWL baseline diagnosis Steatosis
[7] = 2 g DS102 arm, OWL baseline diagnosis NASH
[8] = 2 g DS102 arm, OWL baseline diagnosis No NAFLD
[9] = 2 g DS102 arm, OWL baseline diagnosis Steatosis
[10] = 6000/3000 mg/kg/day oral gavage

`CC/C=C\C[C@H](O)/C=C/C=C\C/C=C\C/C=C\CCCC(=O)OCC` [DS102, 15(S)-hydroxy-(5Z,8Z,11Z,13E,17Z)-eicosapentaenoic acid ethyl ester] was tested, and the “Alpha-SMA mRNA expression level” value ([1]; 50 mg/kg PO QD Day 0-13) was 3.74 ± 0.81, the “Collagen Type 1 mRNA expression level” value ([1]; 50 mg/kg PO QD Day 0-13) was 11.80 ± 1.78 and the “TGF-β mRNA expression level” value ([1]; 50 mg/kg PO QD Day 0-13) was 4.31 ± 0.69. The “TIMP-1 mRNA expression level” value ([1]; 50 mg/kg PO QD Day 0-13) was 138.30 ± 30.39, the “Alpha-SMA mRNA expression level” value ([1]; 500 mg/kg PO QD Day 0-13) was 5.54 ± 1.54 and the “Collagen Type 1 mRNA expression level” value ([1]; 500 mg/kg PO QD Day 0-13) was 14.09 ± 2.88. The “TGF-β mRNA expression level” value ([1]; 500 mg/kg PO QD Day 0-13) was 5.37 ± 0.76, the “TIMP-1 mRNA expression level” value ([1]; 500 mg/kg PO QD Day 0-13) was 124.80 ± 28.60 and the “Change in Diagnosis (Week 16 vs. baseline): Improvement” value (“Change in Diagnosis … Improvement” for short) (NAFLD patients [2]; [4]) was 5. For the same molecule, the “Change in Diagnosis (Week 16 vs. baseline): Stable” value (from here on “Change in Diagnosis … Stable”) (NAFLD patients [2]; [4]) was 14, the “Change in Diagnosis … Stable” value (NAFLD patients [2]; [5]) was 3 and the “Change in Diagnosis (Week 16 vs. baseline): Worsening” value (“Change in Diagnosis … Worsening” below) (NAFLD patients [2]; [5]) was 1. For the same molecule, the “Change in Diagnosis … Stable” value (NAFLD patients [2]; [6]) was 2, the “Change in Diagnosis … Worsening” value (NAFLD patients [2]; [6]) was 3 and the “Change in Diagnosis … Improvement” value (NAFLD patients [2]; [7]) was 5. For the same molecule, the “Change in Diagnosis … Stable” value (NAFLD patients [2]; [7]) was 7, the “Change in Diagnosis … Stable” value (NAFLD patients [2]; [8]) was 2*, ** and the “Change in Diagnosis … Worsening” value (NAFLD patients [2]; [8]) was 1. The “Change in Diagnosis … Improvement” value (NAFLD patients [2]; [9]) was 1, the “Change in Diagnosis … Stable” value (NAFLD patients [2]; [9]) was 9 and the “Change in Diagnosis … Worsening” value (NAFLD patients [2]; [9]) was 4. For the same molecule, the “OWL liver care diagnosed NASH” value (NAFLD patients [2]; NAFLD patients, dose dependent, vs placebo at Week 16) was “significantly improved and normalized”, the “AEs leading to treatment discontinuation” value (NAFLD patients [3]; 1 g DS102 (n = 32)) was 0 n (%) and the Death (NAFLD patients [3]; 1 g DS102 (n = 32)) was 0 n (%). For the same molecule, the “Patients with ≥1 AE” value (NAFLD patients [3]; 1 g DS102 (n = 32)) was 19 (59.4) n (%), the “Patients with ≥1 AE related to study drug” value (NAFLD patients [3]; 1 g DS102 (n = 32)) was 2 (6.3) n (%) and the “Patients with ≥1 SAE” value (NAFLD patients [3]; 1 g DS102 (n = 32)) was 0 n (%). The “SAEs related to drug study” value (NAFLD patients [3]; 1 g DS102 (n = 32)) was 0 n (%), the “AEs leading to treatment discontinuation” value (NAFLD patients [3]; 2 g DS102 (n = 30)) was 0 n (%) and the Death (NAFLD patients [3]; 2 g DS102 (n = 30)) was 0 n (%). For the same molecule, the “Patients with ≥1 AE” value (NAFLD patients [3]; 2 g DS102 (n = 30)) was 15 (50.0) n (%), the “Patients with ≥1 AE related to study drug” value (NAFLD patients [3]; 2 g DS102 (n = 30)) was 3 (10.0) n (%) and the “Patients with ≥1 SAE” value (NAFLD patients [3]; 2 g DS102 (n = 30)) was 1 (3.3) n (%). The “SAEs related to drug study” value (NAFLD patients [3]; 2 g DS102 (n = 30)) was 0 n (%), the safety and tolerance (NAFLD patients [3]; NAFLD patients, 1 g or 2 g per day, 16 weeks, compared to placebo) was “safe and well tolerated” and the “Activated Partial Thromboplastin Time (APTT), Mean” value (Sprague Dawley rats; 2000 mg/kg/day oral gavage) was 15.03* sec. The “Fibrinogen (FIB), Mean” value (Sprague Dawley rats; 2000 mg/kg/day oral gavage) was 2.35** g/L, the “Prothrombin Time (PT), Mean” value (Sprague Dawley rats; 2000 mg/kg/day oral gavage) was 10.69** sec and the “Activated Partial Thromboplastin Time (APTT), Mean” value (Sprague Dawley rats; [10]) was 15.73** sec. The “Fibrinogen (FIB), Mean” value (Sprague Dawley rats; [10]) was 2.26** g/L and the “Prothrombin Time (PT), Mean” value (Sprague Dawley rats; [10]) was 10.81** sec.
